# Data as given in patent publication US20030022250A1, “Functional IgE test methods and compositions” (priority 2001, published 2003).
# Test system: RBL SX-38 cells
# Test: [3H]5-HT release (degranulation) from labeled and sensitized RBL SX-38 cells
# Format: cell-based, rat
# Conditions: pre-incubation 5 minutes at 37 C; 0.1 mM NECA, 30% D2O or 5 μg/ml cytochalasin B
# Method: As specifically exemplified herein, we have labeled RBL SX-38 cells with ^3H-serotonin (5HT). A fraction of the tritiated 5-HT incorporated into cellular granules is released from the cells (in the process of degranulation) following their activation. The percentage of labeled 5-HT release, where the label is a radioactive moiety, is calculated as follows: disintegrations per minute (dpm) in the supernatant divided by the sum of the dpm in the supernatant plus the dpm in the residual cells. This formula is as follows:
# % release =100×(dpm in the supematant)/(dpm in the supernatant+dpm in the residual cells).
# For each experiment, a positive control, activation of the cells with anti-IgE is determined. The % release with anti-IgE (usually about 30-60% of the total 5-HT) is set at 100%. Degranulation with a given allergen is then expressed as a percent of that seen with anti-IgE. […]
# Triggering is initiated by adding 5 μl of allergenic extracts (diluted to the appropriate concentration) or goat anti-human-IgE (3 μg/ml). […] Non-specific background release is assessed using negative controls, which have 5 μl PIPES buffer added instead of extract or anti-IgE. After 45 minutes, the plates are then removed and the tritium content of a 50 μl aliquot from the supernatant of each sample, in 5 ml of scintillation fluid, is determined. […]
structure (smiles),measurement,value
"CCNC(=O)[C@H]1O[C@@H](n2cnc3c(N)ncnc32)[C@H](O)[C@@H]1O [NECA, N-ethylcarboxamido adenosine]",effect on threshold for triggering by allergen,lowers the threshold for triggering
